# Data: PubChem BioAssay (NCI)
#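 Assay format: 96-well plates, 48-hour exposure. At the GI50, growth is halved. TGI: total growth inhibition.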
# What was measured:
# Experiment in all cases: DTP human tumour cell line panel, 48 h
# A498 renal = system: A498 renal
# SN12C renal = system: SN12C renal
# HCT-116 colon = system: HCT-116 colon
# MDA-MB-231 breast = system: MDA-MB-231 breast
# HOP-92 NSCLC = system: HOP-92 NSCLC
# MALME-3M melanoma = system: MALME-3M melanoma
# CCRF-CEM leukemia = system: CCRF-CEM leukemia
# RXF 393 renal = system: RXF 393 renal
# HL-60(TB) leukemia = system: HL-60(TB) leukemia
# RPMI-8226 leukemia = system: RPMI-8226 leukemia
# EKVX NSCLC = system: EKVX NSCLC
# DU-145 prostate = system: DU-145 prostate
# NCI-H460 lung = system: NCI-H460 lung
# SW-620 colon = system: SW-620 colon
# KM12 colon = system: KM12 colon
# U251 CNS = system: U251 CNS
# SNB-75 CNS = system: SNB-75 CNS
# MCF7 breast = system: MCF7 breast
# A549 NSCLC = system: A549 NSCLC
# TK-10 renal = system: TK-10 renal
# NCI-H226 lung = system: NCI-H226 lung
# M14 melanoma = system: M14 melanoma
# PC-3 prostate = system: PC-3 prostate
# OVCAR-5 ovarian = system: OVCAR-5 ovarian
# CAKI-1 renal = system: CAKI-1 renal
# SF-268 CNS = system: SF-268 CNS
# HOP-62 NSCLC = system: HOP-62 NSCLC
# SK-MEL-2 melanoma = system: SK-MEL-2 melanoma
# SK-MEL-5 melanoma = system: SK-MEL-5 melanoma
# HCT-15 colon = system: HCT-15 colon
# SK-MEL-28 melanoma = system: SK-MEL-28 melanoma
# SK-OV-3 ovarian = system: SK-OV-3 ovarian
# LOX IMVI melanoma = system: LOX IMVI melanoma
# T-47D breast = system: T-47D breast
# NCI-H23 lung = system: NCI-H23 lung
# SF-539 CNS = system: SF-539 CNS
# OVCAR-3 ovarian = system: OVCAR-3 ovarian
# SF-295 CNS = system: SF-295 CNS
# UACC-62 melanoma = system: UACC-62 melanoma
# UO-31 renal = system: UO-31 renal
# MOLT-4 leukemia = system: MOLT-4 leukemia
# K-562 leukemia = system: K-562 leukemia
# NCI/ADR-RES ovarian = system: NCI/ADR-RES ovarian
# 786-0 renal = system: 786-0 renal
# UACC-257 melanoma = system: UACC-257 melanoma
# BT-549 breast = system: BT-549 breast
# NCI-H522 lung = system: NCI-H522 lung
# OVCAR-8 ovarian = system: OVCAR-8 ovarian
# HS 578T breast = system: HS 578T breast
# HT29 colon = system: HT29 colon
# OVCAR-4 ovarian = system: OVCAR-4 ovarian
# SNB-19 CNS = system: SNB-19 CNS
# COLO 205 colon = system: COLO 205 colon
# ACHN renal = system: ACHN renal
# HCC-2998 colon = system: HCC-2998 colon
# IGROV1 ovarian = system: IGROV1 ovarian
# MDA-MB-435 = system: MDA-MB-435
smiles,measurement,setting,value
Cc1ccc(S(=O)(=O)n2cc(C(=O)C(=O)Nc3ccncc3)c3ccccc32)cc1,GI50,A498 renal,4.11 µM
same,TGI,A498 renal,77.6 µM
same,GI50,SN12C renal,4.79 µM
same,TGI,SN12C renal,> 100 µM
same,GI50,HCT-116 colon,0.465 µM
same,TGI,HCT-116 colon,23.1 µM
same,GI50,MDA-MB-231 breast,5.92 µM
same,TGI,MDA-MB-231 breast,> 100 µM
same,GI50,HOP-92 NSCLC,0.644 µM
same,TGI,HOP-92 NSCLC,7.01 µM
same,GI50,MALME-3M melanoma,43 µM
same,TGI,MALME-3M melanoma,> 100 µM
same,GI50,CCRF-CEM leukemia,4.53 µM
same,TGI,CCRF-CEM leukemia,> 100 µM
same,GI50,RXF 393 renal,2.7 µM
same,TGI,RXF 393 renal,9.29 µM
same,GI50,HL-60(TB) leukemia,0.635 µM
same,TGI,HL-60(TB) leukemia,3.66 µM
same,GI50,RPMI-8226 leukemia,1.45 µM
same,TGI,RPMI-8226 leukemia,> 100 µM
same,GI50,EKVX NSCLC,3.23 µM
same,TGI,EKVX NSCLC,> 100 µM
same,GI50,DU-145 prostate,3.34 µM
same,TGI,DU-145 prostate,> 100 µM
same,GI50,NCI-H460 lung,7.05 µM
same,TGI,NCI-H460 lung,96.8 µM
same,GI50,SW-620 colon,1.23 µM
same,TGI,SW-620 colon,> 100 µM
same,GI50,KM12 colon,0.595 µM
same,TGI,KM12 colon,> 84.6 µM
same,GI50,U251 CNS,1.4 µM
same,TGI,U251 CNS,> 56.1 µM
same,GI50,SNB-75 CNS,1.72 µM
same,TGI,SNB-75 CNS,16.3 µM
same,GI50,MCF7 breast,0.373 µM
same,TGI,MCF7 breast,27.3 µM
same,GI50,A549 NSCLC,16.5 µM
same,TGI,A549 NSCLC,> 100 µM
same,GI50,TK-10 renal,16.8 µM
same,TGI,TK-10 renal,> 100 µM
same,GI50,NCI-H226 lung,8.6 µM
same,TGI,NCI-H226 lung,> 100 µM
same,GI50,M14 melanoma,0.907 µM
same,TGI,M14 melanoma,> 100 µM
same,GI50,PC-3 prostate,1.6 µM
same,TGI,PC-3 prostate,> 100 µM
same,GI50,OVCAR-5 ovarian,8.19 µM
same,TGI,OVCAR-5 ovarian,> 100 µM
same,GI50,CAKI-1 renal,1.82 µM
same,TGI,CAKI-1 renal,> 100 µM
same,GI50,SF-268 CNS,2 µM
same,TGI,SF-268 CNS,> 100 µM
same,GI50,HOP-62 NSCLC,4.43 µM
same,TGI,HOP-62 NSCLC,> 100 µM
same,GI50,SK-MEL-2 melanoma,5.76 µM
same,TGI,SK-MEL-2 melanoma,> 71.4 µM
same,GI50,SK-MEL-5 melanoma,0.785 µM
same,TGI,SK-MEL-5 melanoma,21.3 µM
same,GI50,HCT-15 colon,0.555 µM
same,TGI,HCT-15 colon,> 100 µM
same,GI50,SK-MEL-28 melanoma,4.17 µM
same,TGI,SK-MEL-28 melanoma,> 100 µM
same,GI50,SK-OV-3 ovarian,19.6 µM
same,TGI,SK-OV-3 ovarian,71.2 µM
same,GI50,LOX IMVI melanoma,1.04 µM
same,TGI,LOX IMVI melanoma,> 100 µM
same,GI50,T-47D breast,4.93 µM
same,TGI,T-47D breast,> 100 µM
same,GI50,NCI-H23 lung,0.556 µM
same,TGI,NCI-H23 lung,> 60.7 µM
same,GI50,SF-539 CNS,1.56 µM
same,TGI,SF-539 CNS,6.84 µM
same,GI50,OVCAR-3 ovarian,0.765 µM
same,TGI,OVCAR-3 ovarian,16.7 µM
same,GI50,SF-295 CNS,1.67 µM
same,TGI,SF-295 CNS,9.57 µM
same,GI50,UACC-62 melanoma,0.829 µM
same,TGI,UACC-62 melanoma,> 46.7 µM
same,GI50,UO-31 renal,5.45 µM
same,TGI,UO-31 renal,> 100 µM
same,GI50,MOLT-4 leukemia,1.77 µM
same,TGI,MOLT-4 leukemia,> 76.5 µM
same,GI50,K-562 leukemia,0.522 µM
same,TGI,K-562 leukemia,> 100 µM
same,GI50,NCI/ADR-RES ovarian,0.406 µM
same,TGI,NCI/ADR-RES ovarian,> 34.1 µM
same,GI50,786-0 renal,3.89 µM
same,TGI,786-0 renal,> 73.2 µM
same,GI50,UACC-257 melanoma,9.03 µM
same,TGI,UACC-257 melanoma,98.1 µM
same,GI50,BT-549 breast,3.62 µM
same,TGI,BT-549 breast,> 100 µM
same,GI50,NCI-H522 lung,0.438 µM
same,TGI,NCI-H522 lung,12.9 µM
same,GI50,OVCAR-8 ovarian,3.1 µM
same,TGI,OVCAR-8 ovarian,> 100 µM
same,TGI,HS 578T breast,> 100 µM
same,GI50,HT29 colon,0.464 µM
same,TGI,HT29 colon,12.1 µM
same,GI50,OVCAR-4 ovarian,4.22 µM
same,TGI,OVCAR-4 ovarian,> 100 µM
same,GI50,SNB-19 CNS,7.37 µM
same,TGI,SNB-19 CNS,> 100 µM
same,GI50,COLO 205 colon,18.7 µM
same,TGI,COLO 205 colon,48.1 µM
same,GI50,ACHN renal,7.82 µM
same,TGI,ACHN renal,> 100 µM
same,GI50,HCC-2998 colon,4.25 µM
same,TGI,HCC-2998 colon,> 100 µM
same,GI50,IGROV1 ovarian,5.74 µM
same,TGI,IGROV1 ovarian,> 100 µM
c1ccc2cc(Cn3c(-c4ccc5ccccc5c4)[n+](Cc4ccc5ccccc5c4)c4ccccc43)ccc2c1,GI50,HCT-116 colon,0.193 µM
same,TGI,HCT-116 colon,0.598 µM
same,GI50,MDA-MB-231 breast,0.218 µM
same,TGI,MDA-MB-231 breast,0.961 µM
same,GI50,HOP-92 NSCLC,0.0852 µM
same,TGI,HOP-92 NSCLC,0.416 µM
same,GI50,MALME-3M melanoma,0.215 µM
same,TGI,MALME-3M melanoma,0.649 µM
same,GI50,HL-60(TB) leukemia,0.293 µM
same,TGI,HL-60(TB) leukemia,0.944 µM
same,GI50,DU-145 prostate,0.399 µM
same,TGI,DU-145 prostate,1.52 µM
same,GI50,SW-620 colon,0.31 µM
same,TGI,SW-620 colon,1.22 µM
same,GI50,KM12 colon,0.269 µM
same,TGI,KM12 colon,0.869 µM
same,GI50,SNB-75 CNS,0.182 µM
same,TGI,SNB-75 CNS,0.827 µM
same,GI50,NCI-H226 lung,0.481 µM
same,TGI,NCI-H226 lung,2.46 µM
same,GI50,PC-3 prostate,0.228 µM
same,TGI,PC-3 prostate,0.763 µM
same,GI50,OVCAR-5 ovarian,0.41 µM
same,TGI,OVCAR-5 ovarian,1.59 µM
same,GI50,SK-MEL-28 melanoma,0.362 µM
same,TGI,SK-MEL-28 melanoma,1.28 µM
same,GI50,SF-539 CNS,0.381 µM
same,TGI,SF-539 CNS,1.52 µM
same,GI50,UACC-62 melanoma,0.277 µM
same,TGI,UACC-62 melanoma,0.89 µM
same,GI50,UO-31 renal,0.781 µM
same,TGI,UO-31 renal,2.3 µM
same,GI50,MDA-MB-435,0.296 µM
same,TGI,MDA-MB-435,1.03 µM
same,GI50,ACHN renal,0.752 µM
same,TGI,ACHN renal,2.04 µM
same,GI50,HCC-2998 colon,0.365 µM
same,TGI,HCC-2998 colon,1.47 µM
